Assay results from ChEMBL document CHEMBL5303711, “ECBD screening data for assay EOS300108” (2023).
Calls of active or inactive are those of the source. No rule for the calls is given here.

test: Cytotoxicity activity against human HepG2 cells assessed by CellTiter-Glo luminescent cell viability assay.; type: toxicity, cell-based; parameters: assay stage confirmatory assay, source tissue liver; details: HepG2 cells, read-out: IC50 relative

| Structure (SMILES) | CC50 |
| --- | --- |
| O=c1c2ccccc2cnn1-c1nc2ccccc2[nH]1 | 5.2 µM (active) |
| CCS(=O)(=O)N1CCc2ccc(NC(=O)Nc3cccc(C)c3)cc21 | 2.2 µM (active) |
| CCS(=O)(=O)N1CCc2ccc(NC(=O)Nc3cccc(F)c3)cc21 | 5.2 µM (active) |
| CCS(=O)(=O)N1CCc2ccc(NC(=O)Nc3cccc(C#N)c3)cc21 | 5.2 µM (active) |
| CSc1ccc(NC(=O)Nc2ccc3c(c2)N(S(C)(=O)=O)CC3)cc1 | 8.1 µM (inactive) |
| CN1C(=O)c2cccc3c(S(=O)(=O)NC4CCCCC4)ccc1c23 | 50 µM (inactive) |
| COc1ccc(NS(=O)(=O)c2ccc3onc(C(=O)N4CCCC4)c3c2)cc1 | 7.1 µM (active) |
| CN(C)CCNC(=O)Cn1c(-c2ccccc2)nn(-c2ccc(Cl)cc2)c1=O | 6.5 µM (active) |
| O=c1cnnc(NCc2ccccc2)n1Cc1ccccc1 | 4.5 µM (active) |
| CCN1CCN(c2cc3c(cc2S(=O)(=O)N2CCCCCC2)C(=O)Nc2ccccc2O3)CC1 | 10.9 µM (active) |
| CCCCc1ccc(-c2cnn3cccnc23)cc1 | 8.3 µM (inactive) |
| Cc1cccnc1N1CCN(c2cc([C@H]3C[C@@H](N)C3)nc(N)n2)CC1 | 11.1 µM (active) |
| CC(C)NC(=O)N1CC(Oc2ccc(-c3noc(C4CC4)n3)cc2)C1 | 2.6 µM (active) |
| Cc1nc[nH]c1CNCCCc1ccc(C(C)C)cc1 | 13.6 µM (inactive) |
| CCn1c(=O)c2sc(N3CCCC3)nc2n(CC(=O)Nc2ccc(OC)cc2)c1=O | 31.4 µM (inactive) |
| CCC(C)NC(=O)N1CC(Oc2ccc(-c3noc(C4CCOCC4)n3)cc2)C1 (configuration not stated) | 4.8 µM (active) |
| O=C1c2sc3nccc(=O)n3c2C(=O)N1Cc1ccccc1 | 10.8 µM (active) |
| Cn1ncc(N2CCC(C(=O)N3CCN(CCOc4ccc(Cl)cc4)CC3)C2)cc1=O (configuration not stated) | 5 µM (active) |
| COc1ccccc1C(=O)Cc1nc2ccccc2o1 | 8 µM (inactive) |
| COc1ccc(C(=O)N[C@@H]2CN(Cc3ccccc3)C[C@H]2CN(C)C)cc1 | 7.2 µM (active) |
| CC1CCN(S(=O)(=O)c2ccc(-c3nnc(C(=O)NCCCN4CCCCCC4)o3)cc2)CC1 | 15.6 µM (inactive) |
| COc1ccc(-c2nc(CC3CCN(C(=O)NC(C)(C)C)C3)no2)cc1 (configuration not stated) | 7.8 µM (active) |
| CCN(CC)C(=O)N1CC(Oc2ccc(-c3noc(C4CCOCC4)n3)cc2)C1 | 2.3 µM (active) |
| CCN(CC)C(=O)N1CC(Oc2ccc(-c3noc(-c4cccnc4)n3)cc2)C1 | 2.2 µM (active) |
| CSc1cccc(NC(=O)Nc2ccc3c(c2)N(S(C)(=O)=O)CC3)c1 | 5.4 µM (active) |

| Structure (SMILES) | CC50 |
| --- | --- |
| CCCNC(=O)N1CC(Oc2ccc(-c3noc(C4CC4)n3)cc2)C1 | 6.1 µM (active) |
| NCc1ccc(C(=O)NC2CCc3c[nH]nc3C2)cc1 (configuration not stated) | 9.4 µM (active) |
| CC(C)CCNC(=O)COc1ccc(-c2nc(C(C)C)no2)cc1 | 3.2 µM (active) |
| CCc1ccc(S(=O)(=O)N2CCN(c3ccc(C(C)=O)cc3)CC2)cc1 | 50 µM (inactive) |
| CN1CCC(NC(=O)c2ccc3c(c2)n(Cc2ccccc2)c(=O)c2ccnn23)CC1 | 9.8 µM (active) |
| CC1=C(c2ccccc2)C1C(=O)NC1(C(N)=O)CCCCC1 (configuration not stated) | 14.7 µM (active) |
| CC(=O)Nc1ccc(NC(=O)c2c(O)c3sccc3n(Cc3ccccc3)c2=O)cc1 | 50 µM (inactive) |
| Cc1ccc(-c2cc3c(=O)n(Cc4noc(CN5CCN(C)CC5)n4)ccn3n2)cc1 | 9.4 µM (active) |
| Cc1cc(C)cc(C(=O)N2CCN(c3cc(=O)n(C(C)C)c(=O)n3C(C)C)CC2)c1 | 3.5 µM (active) |
| CC(C)NC(=O)N1CC(Oc2ccc(-c3noc(C4CCOCC4)n3)cc2)C1 | 4.1 µM (active) |
| COc1ccc(NS(=O)(=O)c2ccc3onc(C(=O)N4CCCC4)c3c2)cc1OC | 0.6 µM (active) |
| CCS(=O)(=O)N1CCc2ccc(NC(=O)Nc3ccc(Cl)cc3)cc21 | 14.3 µM (inactive) |
| CCCNC(=O)N1CC(Oc2ccc(-c3noc(-c4ccncc4)n3)cc2)C1 | 3.1 µM (active) |
| CCN1CCN(CCNC(=O)c2cn3ccnc(-c4ccc(C)cc4)c3n2)CC1 | 29 µM (inactive) |
| CCC(C)NC(=O)N1CC(Oc2ccc(-c3noc(-c4ccncc4)n3)cc2)C1 (configuration not stated) | 3.8 µM (active) |
| Cc1cc(C(=O)Nc2ccc(Cl)cc2F)nc2ccnn12 | 2.4 µM (inactive) |
| Cc1cc(C)cc(NC(=O)N(C)CCc2scnc2C)c1 | 50 µM (inactive) |
| COc1ccc(C)cc1NC(=O)N1CCC(n2cnc3cc(F)ccc3c2=O)CC1 | 9.9 µM (active) |
| CC(C)c1noc(-c2ccc(OCC(=O)NC(C)(C)C)cc2)n1 | 8.2 µM (active) |
| Cc1ccc(NC(=O)Nc2ccc3c(c2)N(S(C)(=O)=O)CC3)cc1 | 8.6 µM (inactive) |
| CCc1ccc(NC(=O)Nc2ccc3c(c2)N(S(C)(=O)=O)CC3)cc1 | 2.3 µM (active) |
| CC(NC(=O)N1CCCN(C)C2(CCNCC2)C1)c1ccccc1Cl (configuration not stated) | 4.3 µM (active) |
| COc1ccc(C(=O)N[C@@H]2CN(Cc3ccccc3)C[C@H]2CN(C)C)c(OC)c1 | 11.1 µM (active) |
| Cc1noc(C2CN(C3CCCC3)CCCN2C(=O)c2ccccc2)n1 (configuration not stated) | 6.6 µM (active) |
| Cc1ccc(NC(=O)Nc2ccc3c(c2)N(S(C)(=O)=O)CC3)cc1F | 3.6 µM (inactive) |

| Structure (SMILES) | CC50 |
| --- | --- |
| CCCNC(=O)N1CC(Oc2ccc(-c3noc(-c4cccnc4)n3)cc2)C1 | 6 µM (active) |
| COc1ccc(OC)c(C(O)CN2CCN(c3cccc(C)c3C)CC2)c1 (configuration not stated) | 9.9 µM (active) |
| O=C(CC1CCCN(c2cn[nH]c(=O)c2)C1)Nc1cccc(Cl)c1 (configuration not stated) | 8.1 µM (active) |
| CCS(=O)(=O)N1CCc2ccc(NC(=O)Nc3cccc(Cl)c3)cc21 | 2.6 µM (active) |
| CCCS(=O)(=O)N1CCc2ccc(NC(=O)Nc3cccc(OC)c3)cc21 | 4.9 µM (active) |
| O=C(c1ccncc1)N1CCC2(CC1)CC(Cc1nc(-c3ccncc3)no1)CCO2 (configuration not stated) | 5.2 µM (active) |
| CCc1ccc(NC(=O)Nc2ccc3c(c2)N(S(=O)(=O)CC)CC3)cc1 | 2.4 µM (active) |
| CCC(C)NC(=O)N1CC(Oc2ccc(-c3noc(-c4cccnc4)n3)cc2)C1 (configuration not stated) | 4.5 µM (active) |
| Cc1ccc(NC(=O)Nc2ccc3c(c2)N(S(C)(=O)=O)CC3)cc1C | 16.8 µM (inactive) |
| CN(Cc1cc(=O)n2cccc(O)c2n1)CC1(c2ccccc2)CC1(C)C (configuration not stated) | 2.9 µM (active) |
| COc1ccc(NC(=O)Nc2ccc3nc(S(C)(=O)=O)sc3c2)cc1 | 17.5 µM (inactive) |
| CC(C)CNC(=O)N1CC(Oc2ccc(-c3noc(-c4cccnc4)n3)cc2)C1 | 5.4 µM (active) |
| CC(C)CNC(=O)N1CC(Oc2ccc(-c3noc(C4CCOCC4)n3)cc2)C1 | 4.3 µM (active) |
| CC(=O)c1ccc(N2CCN(S(=O)(=O)c3ccc4onc(C(=O)N5CCCC5)c4c3)CC2)cc1 | 0.9 µM (active) |
| CN(C)CC1CCN(Cc2[nH]c3ccccc3c2Cl)C1 (configuration not stated) | 5.8 µM (active) |
| CCN(CC)CCCNC(=O)C1CCN(c2ncc(-c3ccccc3)cn2)CC1 | 9.7 µM (active) |
| CS(=O)(=O)N1CCc2ccc(NC(=O)Nc3cccc(C#N)c3)cc21 | 9.7 µM (active) |
| CS(=O)(=O)N1CCc2ccc(NC(=O)Nc3cccc(Cl)c3)cc21 | 1.3 µM (active) |
| COc1ccc(NC(=O)Cn2sc3ccccc3c2=O)cc1OC | 12.2 µM (active) |
| CC(C)Cn1c(=O)c2sccc2n2c(=O)n(CC(=O)Nc3ccc(F)cc3)nc12 | 50 µM (inactive) |
| CCCS(=O)(=O)N1CCc2ccc(NC(=O)Nc3ccc(OCC)cc3)cc21 | 50 µM (inactive) |
| CS(=O)(=O)N1CCc2ccc(NC(=O)Nc3ccc(Br)cc3)cc21 | 3.2 µM (inactive) |
| Cc1cccc(NC(=O)Nc2ccc3c(c2)N(S(C)(=O)=O)CC3)c1 | 3.3 µM (active) |
| Cc1ccc2nccc(N3CCCC(CCC(=O)N(C)C)C3)c2c1 (configuration not stated) | 8.3 µM (active) |
| O=C(NCc1ccccc1)c1c(O)c2cccnc2n(Cc2ccccc2)c1=O | 6.9 µM (active) |

| Structure (SMILES) | CC50 |
| --- | --- |
| CCC(C)NC(=O)N1CC(Oc2ccc(-c3noc(C4CC4)n3)cc2)C1 (configuration not stated) | 3.5 µM (active) |
| O=C(NC1CCCC1)N1CC(Oc2ccc(-c3noc(-c4cccnc4)n3)cc2)C1 | 6.9 µM (active) |
| O=C1Nc2cc(Cl)ccc2Oc2ccc(S(=O)(=O)N3CCCC3)cc21 | 6.4 µM (active) |
| CC(C)CNC(=O)COc1ccc(-c2nc(C(C)C)no2)cc1 | 8.1 µM (active) |
| CCc1cccc(NC(=O)Nc2ccc3c(c2)N(S(C)(=O)=O)CC3)c1 | 2.9 µM (active) |
| CCCNC(=O)N1CC(Oc2ccc(-c3noc(C4CCOCC4)n3)cc2)C1 | 3.7 µM (active) |
| Cc1cc(F)ccc1N1CCC(NCC(O)c2cccc(O)c2)CC1 (configuration not stated) | 10.1 µM (active) |
| CCN(CC)CCNC(=O)C1CCCN(c2ncc(-c3ccc(C)cc3)cn2)C1 (configuration not stated) | 4.3 µM (active) |
| CS(=O)(=O)N1CCc2ccc(NC(=O)Nc3ccc(Cl)cc3)cc21 | 3.9 µM (inactive) |
| O=C(Nc1nc(-c2cccnc2)cs1)c1ccccn1 | 11.6 µM (active) |
| Cc1cccc(C(=O)N[C@@H]2CN(Cc3ccccc3)C[C@H]2CN(C)C)c1 | 10 µM (active) |
| Cc1ccc(NC(=O)CCN(C)CC2CCN(C)C2(C)C)cc1F (configuration not stated) | 9.7 µM (active) |
| COc1cccc(Cn2c(=O)c3ccnn3c3ccc(C(=O)NCCN(C)C)cc32)c1 | 12.3 µM (active) |
| CCCS(=O)(=O)N1CCc2ccc(NC(=O)Nc3ccc(SC)cc3)cc21 | 18.2 µM (inactive) |
| COc1ccc(NC(=O)Nc2ccc3c(c2)N(S(C)(=O)=O)CC3)cc1Cl | 10.5 µM (inactive) |
| COc1ccccc1NC(=O)N1CCC(n2cnc3ccc(C)cc3c2=O)CC1 | 3.6 µM (active) |
| CCCS(=O)(=O)N1CCc2ccc(NC(=O)Nc3cccc(C#N)c3)cc21 | 10.2 µM (active) |
| NCCCNc1nc(-c2ccccc2)nc2ccccc12 | 11.9 µM (active) |
| CN1CCN(c2cc3c(cc2S(=O)(=O)N2CCCCCC2)C(=O)Nc2ccccc2O3)CC1 | 11.5 µM (active) |
| CC(C)NC(=O)N1CC(Oc2ccc(-c3noc(-c4cccnc4)n3)cc2)C1 | 3.4 µM (active) |
| Cn1c(CNC(=O)c2ccc3c(c2)n(C)c(=O)c2ccnn23)nc2ccccc21 | 16.4 µM (inactive) |
| CCN1CCN(Cc2cc(=O)oc3cc(-c4ccccc4)c(O)cc23)CC1 | 3.8 µM (active) |
